Molecules are shown by their SMILES.

Here are results for two compounds from paper PMC10257657, “A flavin-monooxygenase catalyzing oxepinone formation and the complete biosynthesis of vibralactone” (Nature Communications, 2023).

The target in assay [1] is T1, VibO (Boreostereum vibrans, UniProt A0AA82WP17, D99A).
T1 construct: full length, N-terminal His6 tag, expressed in E. coli BL21(DE3) (pET28a(+)); domains cover residues 1-653; dimer; copurified FAD
As to the kind of experiment: LC-MS peak area of product […]. Format: biochemical. Conditions: 6 0.5 mM, NADPH 0.1 mM, pH 7.5, 28 °C, 2 h; hydroxylation to 7.

Assay [2] addresses T2, VibO (Boreostereum vibrans, UniProt A0AA82WP17, F265Y).
T2 construct: full length, N-terminal His6 tag, expressed in E. coli BL21(DE3) (pET28a(+)); domains cover residues 1-653; dimer; copurified FAD
Put plainly: LC-MS peak area of product […]. The assay is classed as biochemical. Conditions: 6 0.5 mM, NADPH 0.1 mM, pH 7.5, 28 °C, 2 h; hydroxylation to 7.

Assay [3] deals with T3, VibO (Boreostereum vibrans, UniProt A0AA82WP17, D99N).
T3 construct: full length, N-terminal His6 tag, expressed in E. coli BL21(DE3) (pET28a(+)); domains cover residues 1-653; dimer; copurified FAD
As to the kind of experiment: LC-MS peak area of product […]. To be noted: 6 0.5 mM, NADPH 0.1 mM, pH 7.5, 28 °C, 2 h; hydroxylation to 7. The assay is classed as biochemical.

Assay [4] concerns the target T4, PHHY (Cutaneotrichosporon cutaneum, UniProt P15245).
T4 construct: synthesized gene expressed in E. coli; FAD-dependent
Put plainly: enzyme assay, catechol production. To be noted: E. coli-expressed enzyme; purification not told in main text. Format: cell-based.

T2 sequence (A0AA82WP17 entry or part of it F265Y): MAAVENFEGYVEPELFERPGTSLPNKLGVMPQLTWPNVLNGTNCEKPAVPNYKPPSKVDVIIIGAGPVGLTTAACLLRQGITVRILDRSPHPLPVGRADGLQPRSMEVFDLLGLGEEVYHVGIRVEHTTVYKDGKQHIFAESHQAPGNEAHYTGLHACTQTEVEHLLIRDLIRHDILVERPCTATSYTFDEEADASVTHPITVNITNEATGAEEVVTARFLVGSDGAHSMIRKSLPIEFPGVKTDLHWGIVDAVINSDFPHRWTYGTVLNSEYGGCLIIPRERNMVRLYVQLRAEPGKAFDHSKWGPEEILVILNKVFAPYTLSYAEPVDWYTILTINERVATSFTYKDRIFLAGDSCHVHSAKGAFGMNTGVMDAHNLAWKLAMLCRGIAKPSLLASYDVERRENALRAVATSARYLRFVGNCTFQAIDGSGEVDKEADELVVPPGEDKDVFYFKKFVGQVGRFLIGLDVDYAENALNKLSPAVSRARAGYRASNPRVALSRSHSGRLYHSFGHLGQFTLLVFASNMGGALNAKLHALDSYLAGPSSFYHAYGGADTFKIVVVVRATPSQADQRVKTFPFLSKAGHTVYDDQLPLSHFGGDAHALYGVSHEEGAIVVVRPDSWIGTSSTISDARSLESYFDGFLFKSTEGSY
T1 sequence (A0AA82WP17 entry or part of it D99A): as the sequence (A0AA82WP17 entry or part of it F265Y) above, with D99A, Y265F counted along it
T4 sequence (P15245 2-665): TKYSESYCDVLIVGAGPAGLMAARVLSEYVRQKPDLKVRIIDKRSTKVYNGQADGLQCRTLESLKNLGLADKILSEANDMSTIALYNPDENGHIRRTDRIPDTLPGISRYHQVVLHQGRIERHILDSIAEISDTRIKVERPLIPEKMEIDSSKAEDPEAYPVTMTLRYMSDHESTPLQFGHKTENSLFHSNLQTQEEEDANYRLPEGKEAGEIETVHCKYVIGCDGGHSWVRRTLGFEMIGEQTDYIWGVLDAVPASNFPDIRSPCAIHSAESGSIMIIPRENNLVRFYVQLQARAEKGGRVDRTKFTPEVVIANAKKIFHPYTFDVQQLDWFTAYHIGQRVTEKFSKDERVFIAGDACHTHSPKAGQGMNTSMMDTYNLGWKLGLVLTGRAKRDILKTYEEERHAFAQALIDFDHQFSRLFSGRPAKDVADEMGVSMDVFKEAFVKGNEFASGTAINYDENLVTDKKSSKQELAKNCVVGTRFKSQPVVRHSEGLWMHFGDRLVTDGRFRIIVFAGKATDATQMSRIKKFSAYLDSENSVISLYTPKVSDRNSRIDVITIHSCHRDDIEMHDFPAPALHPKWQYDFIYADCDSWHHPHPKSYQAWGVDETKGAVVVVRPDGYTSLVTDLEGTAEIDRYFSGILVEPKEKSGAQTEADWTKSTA
T3 sequence (A0AA82WP17 entry or part of it D99N): as the sequence (A0AA82WP17 entry or part of it F265Y) above, with D99N, Y265F counted along it

Take `CC(C)=CCc1cc(CO)ccc1O` [compound 6, 3-prenyl-4-hydroxybenzylalcohol]: the “% of wild-type activity (production of 7)” value in assay [1] was 16%; in assay [2], 22%; in assay [3] it was 10%.
With `Oc1ccccc1` [phenol], in assay [4], the “enzyme assay, catechol production” value is “significant production of catechol was observed for PHHY incubating with phenol”.
